# Laboratory results from patent US20210308077A1, “COMBINATIONS INCLUDING BETA-ADRENORECEPTOR AGONISTS FOR TREATMENT OF PARKINSON`S DISEASE AND MOVEMENT DISORDERS” (The Brigham and Women`s Hospital, Inc., priority 2017, published 2021).
# Structures can show the parent of a compound that is named as a salt.
# Tests used:
# SNCA mRNA [1] = experiment: endogenous SNCA mRNA expression in SK-N-MC neuroblastoma cells (screening, replication, confirmation; qPCR); type: cell-based, human; conditions: for relative SNCA mRNA abundance, confirmation stage: 10 μM for 48 hours, vs vehicle control
# Protocol: Human neuroblastoma SK-N-MC cells were acquired from American Type Culture Collection (ATCC). Cells were cultured at 37° C. in 5% CO2 in DMEM/F12 supplemented with 10% fetal bovine serum (FBS) and 100 units per ml penicillin and streptomycin. The drug library was obtained from the Laboratory for Drug Discovery in Neurodegeneration (LDDN), Harvard NeuroDiscovery Center, Boston, Mass. The drug library consisted of approximately 1,126 small molecules. About 586 of the compounds were from Prestwick Chemical's (Illkirch, France) library, a unique collection of mostly off-patent small organic molecules, 90% being marketed drugs and 10% bioactive alkaloids or related substances. About 400 compounds were from the SPECS collection (available on the world wide web at.specs.net). 140 compounds generated in house by the LDDN were also included in the library. Compounds for the screening were stored as DMSO stocks. All drugs used for Confirmation Assay were purchased from Sigma (St. Louis, Mo.).
# Approximately 2×10^4low passage SK-N-MC cells were seeded per well in 384-well cell culture plates for 24 hours. Compounds were then transferred into each well (final concentration 1 μM) by using a BioMekFX (Beckman Coulter) equipped with a 384-channel pipetting head. After 48 hours in cell culture incubator, cells were washed once in cold phosphate-buffered saline (PBS) by using BioTek ELx405 select CW plate washer and then lysed at room temperature (22-24° C.) with lysis buffer (Applied Biosystems) using the Cell-to-CT procedures according to the manufacturer's instructions (Applied Biosystems). After 5 min, lysis was terminated by incubation with stop solution (Applied Biosystems). 11 μL of each lysate were transferred to 384-well plates for RT in a total volume of 25 μl. 4 μL of RT reaction were then transferred to new 384-well plates for qPCR.
# Using the Cell-to-CT kit (Applied Biosystems) we performed expression analysis directly from SK-N-MC neuroblastoma cells cultured in 384-well plates through in situ cDNA synthesis. In this miniaturized assay, high copy numbers of SNCA and of endogenous controls were detected as indicated by raw cycle threshold values of 25.11±0.02 (mean CT value±SEM) and 20.2±0.02 for SNCA and Ubiquitin C (UBC), respectively. Technical variation (using identical cDNA loaded in multiple wells) and biological variation (cDNA synthesized in situ in each of 384 wells of cultured SK-N-MC cells treated with DMSO) were low, with coefficients of variation of 1% and 5.2% respectively. At least ten DMSO-treated controls were included on each 384-well plate as negative external control and calibrator. An equal amount of cDNA derived from Universal Reference RNA was spotted on all plates as plate-to-plate control. Control reactions lacking template or reverse transcription were assayed for contamination with genomic DNA.
# 41 compounds were forwarded into the Replication Assay. For each compound eight wells were treated with drug and compared to eight wells treated with DMSO alone. The Cell-to-CT procedure was employed using two new reference genes, ribosomal protein L13 (RPL13) and glucuronidase beta (GUSB) (instead of UBC) to control for input RNA. […] 10 compounds met these criteria and were forwarded from the Replication into the Confirmation Assay.
# The ten forwarded compounds were used in the Confirmation Assay. For each compound ten wells were treated with drug and compared to ten wells treated with DMSO alone. RNA was extracted using TRIzol® following the manufacturers protocol (Life Technologies). Freshly ordered compounds were used. […] Six compounds met these criteria and were forwarded from the Confirmation Assay to the ELISA Assay stage (see below).
# Total RNA from flash-frozen mice brain tissue, rodent primary cells, human neuroblastoma cells and iPSC-derived neuronal cells was isolated using TRIzol® (Life Technologies) following the manufacturer's protocol. […]
# H3K27Ac = experiment: immunoblot with antibody against H3K27Ac in SK-N-MC cells; type: cell-based, human; conditions: vs vehicle-treated cells
# Protocol: For western blot analysis, protein samples (20 μg) were run on a 4-20% gradient SDS-polyacrylamide gel (Biorad) and transferred onto a polyvinylidene fluoride (PVDF) membrane filter (0.2 μm; Biorad) using an electroblot apparatus (Bio-Rad, Hercules, Calif.) at 100V for 1 h in transfer buffer (25 mM Tris-HCl, 192 mM glycine, 0.1% SDS, 20% (v/v) methanol). The membrane was incubated in blocking solution (50 mM Tris-HCl, 200 mM NaCl, 1 mM MgCl2, pH 7.4) containing 5% non-fat dry milk powder for 1 hour at room temperature. The membrane was processed through sequential incubations with primary antibody overnight at 4° C. followed by incubation with horseradish peroxidase-conjugated species specific secondary antibody at 1:250 dilutions (Thermo Scientific Pierce). Immunoreactive proteins on the membrane were visualized using the SuperSignal™ West Pico Chemiluminescent kit (Thermo Scientific Pierce). Scanned western blots were analyzed using ImageJ software, version 1.47. Pictures were inverted and usually the background signal from an empty lane was subtracted to obtain specific signals for each lane.
# [2] = system: H3K27 acetylation of SNCA promoter and enhancers; experiment: chromatin immunoprecipitation for H3K27ac at SNCA promoter and enhancers in SK-N-MC cells; type: cell-based, human; conditions: clenbuterol 10 μM, valproic acid 100 μM, propranolol 100 μM, vs vehicle
# Protocol: Chromatin immunoprecipitation (ChIP) assays were performed using the Simple ChIP Enzymatic Chromatin IP kit protocol as recommended by the manufacturer (Cell Signaling Technology) with slight modifications. Briefly, ChIPs were performed on asynchronously growing SK-N-MC cells treated with clenbuterol (10 μM), valproic acid (100 μM) or propranolol (100 μM). Cross-linking was carried out with 1% formaldehyde for 10 min at room temperature. Cross-linking was subsequently quenched by adding glycine to a final concentration of 1× for 5 min. Cells were collected and washed twice with PBS, then resuspended in 2 mL of lysis buffer (as described in the protocol). After 10 min on ice, cells were treated with micrococcal nuclease and then sonicated to obtain DNA fragments of ˜500 bp as determined by agarose gel electrophoresis with ethidium bromide staining. Protein-DNA complexes were isolated by centrifugation at 10,000 rpm for 10 min. Supernatants with protein-DNA complexes were incubated overnight with rabbit polyclonal antibody directed against acetylated H3K27 (Abcam). Normal rabbit IgG was used as a negative control and Histone H3 rabbit mAb (ChIP formulated) as positive control. 2% of sample was saved as input. Antibody-protein-DNA complexes were further incubated for 2 hours with 30 μl of ChIP-grade Protein G magnetic beads to isolate antibody bound fractions of chromatin. Immuno-complexes were washed with the buffers provided and as described in the kit. Protein-DNA complexes were eluted and cross-links of pull down fractions and inputs (2% of total IP fraction) were reversed by 2 hours incubation in Proteinase K and 5 M NaCl at 65° C. […] 2 μl of immunoprecipitated DNA was analyzed by qPCR using a Power SYBR Green PCR Master mix (Applied Biosystems by Life technologies) on an ABI 7900HT instrument (Applied Biosystems) with the following temperature profile: 3 min of enzyme activation at 95° C. followed by 40 cycles of 95° C. for 15 s and 60° C. for 60 s. Sample from three independent immunoprecipitation assays were analyzed.
# α-synuclein protein = α-synuclein protein in rat primary cortical neurons (ELISA); type: cell-based; conditions: metaproterenol 5 μM, clenbuterol 20 μM, salbutamol 10 μM, 72 hours
# Protocol: (§1) Primary cortical cultures were generated from E18 Sprague-Dawley rat embryos. The cortical region was dissected out in Hank's Balanced Salt Solution buffered with Hepes and dissociated with 0.125% trypsin (Invitrogen) for 17 min at 37 ° C., followed by trituration. Dissociated cells were plated at a density of 5×10^5 cells/well or 2.5×10^5 cells/well in 12-well or 24-well plates, respectively precoated with poly-D lysine (100 μg/mL). The cells were cultured in Neurobasal medium with B-27 supplement (Invitrogen) and glutamax and gentamycin. Half of the medium was changed every 4 days. Cortical neurons were treated with β2AR agonists 10 days post plating. They were then harvested 48 hours post-treatment for mRNA extraction and 72 hours post-treatment for protein extraction.
# Protein lysis buffer containing 320 mM sucrose, 5 mM NaF, 1 mM Na3VO4, 10 mM Tris (pH 7.4), 1 mM EGTA, and 1 mM EDTA was used for mice brain tissue lysis. 100 μL of cold extraction buffer was added to each sample and homogenized in a dounce homogenizer. […] Total protein concentrations were determined by BCA assay (Thermo Scientific) according to the manufacturer's instructions. Total α-synuclein was quantified using an α-synuclein-specific sandwich ELISA.
# An α-synuclein-specific Meso Scale Discovery (MSD) ELISA assay (described in Ref. (11)) was utilized for endogenous α-synuclein protein measurement. […] After samples were emptied and plate washed 3 times with TBS-T, sulfo-tagged SOY1 mAb (detection Ab) (generated using Sulfo-Tag-NHS-Ester (MSD) diluted in blocking buffer (6.7 ng/μl), was added to the plate (30 μl volumes/well) and shaken for 1 hour at room temperature. Following 3 washes, MSD Read (2×, diluted in ultrapure water) buffer was added and the plates were immediately measured using a MSD Sector 2400 imager. For confirmatory studies, an second α-synuclein-specific ELISA implementation was used employing a different, extensively published anti-α-synuclein detection antibody (Syn-1 mAb) and a different anti-α-synuclein capture antibody (1H9, courtesy Dr. Selkoe).
# Snca mRNA [3] = experiment: Snca mRNA in rat primary cortical neurons; type: cell-based; conditions: metaproterenol 5 μM, clenbuterol 20 μM, salbutamol 10 μM, 48 hours
# Protocol: as §1
# Total RNA from flash-frozen mice brain tissue, rodent primary cells, human neuroblastoma cells and iPSC-derived neuronal cells was isolated using TRIzol® (Life Technologies) following the manufacturer's protocol. RNA concentration was measured using NanoDrop spectrophotometer (Thermo Fisher Scientific, Wilmington, De.). 2 μg of total RNA was reverse transcribed into cDNA using the High Capacity cDNA Reverse Transcription Kit from Applied Biosystems. Quantitative PCR was performed using TaqMan Universal PCR Master Mix (Applied Biosystems) on an ABI 7900HT instrument (Applied Biosystems) as described previously (31). For mouse brain tissue and rat primary cortical neuron samples, rodent-specific TaqMan Assay on-demand primers and probes were used to assay the relative abundance of target genes, and rodent Rp113 was used as a reference gene to normalize for RNA loading. Similar results were obtained when Actb or Ubc were used as controls for input RNA. For human neuroblastoma and iPSC-derived neuron samples, human TaqMan Assay on-demand probes were used to assay the relative abundance of target genes, and the geometric mean of the three human reference genes RPL13, GUSB and UBC was used to normalize for RNA loading. Expression values were analyzed using the comparative threshold cycle method (31).
# [4] = system: 6-hydroxydopamine rat model of PD; conditions: 6-hydroxydopamine rat model of PD (reference 9); cited from earlier work
smiles,measurement,setting,value
CCCC(CCC)C(=O)O [valproic acid],relative SNCA mRNA abundance (with H3K27Ac blot),"SNCA mRNA [1]; SK-N-MC cells, vs vehicle-treated cells",increase
same,effect of co-treatment on the β2AR agonist effect on SNCA expression,SNCA mRNA [1]; co-treatment of clenbuterol with valproic acid,abrogated the β2AR agonist effect on SNCA expression
same,H3K27Ac levels (Western blotting),H3K27Ac,increase
same,H3K27 acetylation across SNCA promoter and two intronic enhancers (ChIP),[2],increased H3K27 acetylation
CC(C)NCC(O)c1cc(O)cc(O)c1 (centres unmarked) [metaproterenol],"relative SNCA mRNA abundance, confirmation stage",SNCA mRNA [1]; SK-N-MC cells,reduced SNCA mRNA abundance
same,reduction of SNCA expression in the screening stage,"SNCA mRNA [1]; SK-N-MC cells, 48 hours, vs DMSO, final concentration 1 μM",more than 35%
same,"SNCA mRNA expression, dose dependence","SNCA mRNA [1]; SK-N-MC cells, indicated doses, 48 hours",lowered SNCA mRNA expression in a dose-dependent manner
same,α-synuclein protein levels,α-synuclein protein,"significantly, but modestly, reduced"
same,endogenous Snca mRNA,Snca mRNA [3],"significantly, but modestly, reduced"
Nc1nc2ccc(OC(F)(F)F)cc2s1 [riluzole hydrochloride],"relative SNCA mRNA abundance, confirmation stage",SNCA mRNA [1]; SK-N-MC cells,fourth hit
same,dopaminergic neurodegeneration,[4],attenuates dopaminergic neurodegeneration
